Source: BindingDB's records for doi:10.1016/S0960-894X(00)80680-0 (1993)
pIC50: −log10 of the molar value.

Assay: Displacement of [125I]Bolton-Hunter-CCK-8 from guinea pig cortex Cholecystokinin type B receptor

## CN(C(=O)[C@H](CC(=O)O)NNC[C@H](CCCCNC(=O)C=Cc1ccc(O)cc1)NC(=O)[C@H](Cc1c[nH]c2ccccc12)NC(=O)OC(C)(C)C)[C@@H](Cc1ccccc1)C(N)=O [3-(N'-{(S)-2-[(S)-2-tert-Butoxycarbonylamino-3-(1H-indol-3-yl)-propionylamino]-6-[(Z)-3-(4-hydroxy-phenyl)-acryloylamino]-hexyl}-hydrazino)-N-((S)-1-carbamoyl-2-phenyl-ethyl)-N-methyl-succinamic acid]
  pIC50: 5.30

## CC(C)(C)OC(=O)N[C@@H](Cc1c[nH]c2ccccc12)C(=O)N[C@@H](CCCCNC(=O)C=Cc1ccc(O)cc1)CNN[C@@H](CC(=O)O)C(=O)N[C@@H](Cc1ccccc1)C(N)=O [3-(N'-{(S)-2-[(S)-2-tert-Butoxycarbonylamino-3-(1H-indol-3-yl)-propionylamino]-6-[(Z)-3-(4-hydroxy-phenyl)-acryloylamino]-hexyl}-hydrazino)-N-((S)-1-carbamoyl-2-phenyl-ethyl)-succinamic acid]
  pIC50: 5.42

## Cc1ccccc1NC(=O)NCCCC[C@H](NC(=O)[C@H](Cc1c[nH]c2ccccc12)NC(=O)OC(C)(C)C)C(=O)N[C@H](CNN[C@@H](Cc1ccccc1)C(N)=O)CC(=O)O [3-{2-[2-tert-Butoxycarbonylamino-3-(1H-indol-3-yl)-propionylamino]-6-[(S)-3-((1S,2S)-o-tolyl)-ureido]-hexanoylamino}-4-[N'-((S)-1-carbamoyl-2-phenyl-ethyl)-hydrazino]-butyric acid]
  pIC50: < 5.00

## Cc1ccccc1NC(=O)NCCCC[C@H](NNC[C@H](Cc1c[nH]c2ccccc12)NC(=O)OC(C)(C)C)C(=O)N[C@@H](CC(=O)O)C(=O)N[C@@H](Cc1ccccc1)C(N)=O [(S)-3-[(S)-2-[N'-((S)-2-tert-Butoxycarbonylamino-3-1H-indol-3-yl-propyl)-hydrazino]-6-(3-o-tolyl-ureido)-hexanoylamino]-N-((S)-1-carbamoyl-2-phenyl-ethyl)-succinamic acid]
  pIC50: 5.60

## CC(C)(C)OC(=O)N[C@@H](Cc1c[nH]c2ccccc12)C(=O)N[C@@H](CCCCNC(=O)C=Cc1ccc(O)cc1)C(=O)N[C@H](CNN[C@@H](Cc1ccccc1)C(N)=O)CC(=O)O [(S)-3-{2-[2-tert-Butoxycarbonylamino-3-(1H-indol-3-yl)-propionylamino]-6-[(S)-3-((S)-4-hydroxy-phenyl)-acryloylamino]-hexanoylamino}-4-[N'-((S)-1-carbamoyl-2-phenyl-ethyl)-hydrazino]-butyric acid]
  pIC50: 5.15

## Cc1ccccc1NC(=O)NCCCC[C@@H](CNN[C@@H](CC(=O)O)C(=O)N(C)[C@@H](Cc1ccccc1)C(N)=O)NC(=O)[C@H](Cc1c[nH]c2ccccc12)NC(=O)OC(C)(C)C [(S)-3-{N'-[2-((3aS,7S)-2-tert-Butoxycarbonylamino-3-1H-indol-3-yl-propionylamino)-6-(3-o-tolyl-ureido)-hexyl]-hydrazino}-N-((S)-1-carbamoyl-2-phenyl-ethyl)-N-methyl-succinamic acid]
  pIC50: < 5.00
